Data: PMC3919815, “Anti-Tumor Effects of Novel 5-O-Acyl Plumbagins Based on the Inhibition of Mammalian DNA Replicative Polymerase Activity” (PLoS ONE, 2014)
Values joined by “and” are separate entries in the source; they are usually repeats but may differ in a detail not shown here. Identical values can stand only once.

Key:
T7 RNA polymerase = molecular target: T1, T7 RNA polymerase (Escherichia phage T7, UniProt P00573); assay: Other DNA metabolic enzyme assay; type: biochemical
T1 construct: purchased Takara Bio Inc. (Kyoto, Japan)
T1 sequence (P00573 whole entry): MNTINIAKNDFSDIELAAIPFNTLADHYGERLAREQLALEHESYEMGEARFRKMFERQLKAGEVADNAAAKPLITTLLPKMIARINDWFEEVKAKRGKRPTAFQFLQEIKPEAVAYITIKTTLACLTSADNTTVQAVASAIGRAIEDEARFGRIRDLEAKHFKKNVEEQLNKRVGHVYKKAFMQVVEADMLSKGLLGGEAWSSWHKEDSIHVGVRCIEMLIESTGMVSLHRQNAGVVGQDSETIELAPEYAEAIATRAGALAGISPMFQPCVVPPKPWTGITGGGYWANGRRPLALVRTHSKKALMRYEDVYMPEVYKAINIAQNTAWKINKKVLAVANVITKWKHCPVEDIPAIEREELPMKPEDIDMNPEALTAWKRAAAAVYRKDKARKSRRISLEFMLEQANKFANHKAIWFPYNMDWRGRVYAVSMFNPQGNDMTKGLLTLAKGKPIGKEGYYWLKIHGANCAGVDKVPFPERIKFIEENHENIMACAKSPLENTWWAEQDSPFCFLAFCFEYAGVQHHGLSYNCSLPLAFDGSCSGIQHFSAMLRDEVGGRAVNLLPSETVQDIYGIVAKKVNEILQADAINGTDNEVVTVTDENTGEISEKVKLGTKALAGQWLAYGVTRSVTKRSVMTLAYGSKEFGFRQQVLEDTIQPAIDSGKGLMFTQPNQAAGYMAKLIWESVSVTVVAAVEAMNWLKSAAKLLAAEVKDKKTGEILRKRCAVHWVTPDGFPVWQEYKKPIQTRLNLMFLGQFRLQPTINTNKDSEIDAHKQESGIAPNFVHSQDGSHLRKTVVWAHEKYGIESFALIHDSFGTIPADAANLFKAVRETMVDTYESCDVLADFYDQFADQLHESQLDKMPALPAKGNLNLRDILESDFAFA
Text: (§1) Pol α was purified from calf thymus by immunoaffinity column chromatography as described by Tamai et al.. Recombinant rat pol β was purified from Escherichia coli JMpβ5 as described by Date et al.. The human pol γ catalytic gene was cloned into pFastBac. Histidine-tagged enzyme was expressed using the BACTO-BAC HT Baculovirus Expression System according to the manufacturer's instructions (Life Technologies, Frederick, MD, USA) and purified using ProBound resin (Invitrogen Japan, Tokyo Japan). Human pols δ and ε were purified by nuclear fractionation of human peripheral blood cancer cells (Molt-4) using the second subunit of pol δ and ε-conjugated affinity column chromatography, respectively. A truncated form of human pol η (residues 1–511) tagged with His6 at its C-terminal was expressed in E. coli cells and purified as described by Kusumoto et al.. A recombinant mouse pol ι tagged with His6 at its C-terminal was expressed and purified by Ni–NTA column chromatography. A truncated form of pol κ (residues 1–560) with 6× His-tags attached at the C-terminus was overexpressed in E. coli and purified as described by Ohashi et al.. Recombinant human His-pol λ was overexpressed and purified according to a method described by Shimazaki et al.. Recombinant human His-pol μ was overexpressed in E. coli BL21 and purified using Glutathione Sepharose 4B (GE Healthcare Bio-Science Corp., Piscataway, NJ, USA) column chromatography according to the method for pol λ preparation by Shimazaki et al.. Pol α from a higher plant, cauliflower, was purified from the inflorescence structure according to the methods outlined by Sakaguchi et al.. Recombinant rice (Oryza sativa L. cv. Nipponbare) pol λ tagged with His6 at the C-terminus was expressed in E. coli and purified as described by Uchiyama et al.. Calf TdT, Taq pol, T4 pol, T7 RNA polymerase, and T4 polynucleotide kinase were purchased from Takara Bio Inc. (Kyoto, Japan). The Klenow fragment of pol I from E. coli was purchased from Worthington Biochemical Corp. (Freehold, NJ, USA). Bovine pancreas deoxyribonuclease I was obtained from Stratagene Cloning Systems (La Jolla, CA, USA).
(§2) The activities of calf primase of pol α, T7 RNA polymerase, mouse inosine-5′-[…] (IMP) dehydrogenase (type II), T4 polynucleotide kinase, and bovine deoxyribonuclease I were measured in standard assays according to the manufacturer's specifications, as described by Tamiya-Koizumi et al., Nakayama and Saneyoshi, Mizushina et al., Soltis et al., and Lu and Sakaguchi, respectively.

[1] = molecular target: T2, Bovine deoxyribonuclease I (Bos taurus, UniProt P00639); assay: Other DNA metabolic enzyme assay; type: biochemical
T2 construct: Bovine pancreas deoxyribonuclease I was obtained from Stratagene Cloning Systems; purchased Stratagene Cloning Systems (La Jolla, CA, USA); host or cells: bovine pancreas
T2 sequence (P00639 23-282): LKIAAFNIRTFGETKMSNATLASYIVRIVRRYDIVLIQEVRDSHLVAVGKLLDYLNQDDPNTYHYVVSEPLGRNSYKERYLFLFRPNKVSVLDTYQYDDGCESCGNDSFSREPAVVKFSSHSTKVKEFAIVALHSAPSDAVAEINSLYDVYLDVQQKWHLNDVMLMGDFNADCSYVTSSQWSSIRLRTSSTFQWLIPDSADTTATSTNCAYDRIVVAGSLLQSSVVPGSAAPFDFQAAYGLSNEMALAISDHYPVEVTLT
Text: as §1, §2

T4 polynucleotide kinase = molecular target: T3, T4 polynucleotide kinase (Enterobacteria phage T4, UniProt P06855); assay: Other DNA metabolic enzyme assay; type: biochemical
T3 construct: purchased Takara Bio Inc. (Kyoto, Japan)
T3 sequence (P06855 whole entry): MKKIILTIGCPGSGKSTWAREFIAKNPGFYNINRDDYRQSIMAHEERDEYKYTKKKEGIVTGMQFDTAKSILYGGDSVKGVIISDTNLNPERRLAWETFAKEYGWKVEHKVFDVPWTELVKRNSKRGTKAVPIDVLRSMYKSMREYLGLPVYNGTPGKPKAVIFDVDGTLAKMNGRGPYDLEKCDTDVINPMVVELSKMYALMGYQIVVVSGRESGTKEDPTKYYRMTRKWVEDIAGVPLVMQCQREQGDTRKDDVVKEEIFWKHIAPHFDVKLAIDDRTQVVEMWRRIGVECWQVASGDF
Text: as §1, §2

[2] = test system: HepG2 (hepatocellular liver cancer); assay: Cancer cell viability, MTT assay; type: cell-based, human; details: 48 h, mean ± SD (n = 5)
Description: (§3) The following human cancer cell lines were obtained from the American Type Culture Collection (Manassas, VA, USA): lung (A549), prostate (DU145 and PC3), colon (HCT116 and HT-29), cervix (HeLa), hepatocellular liver (HepG2), breast (MCF-7), and pancreatic cancer (PANC-1). These cells were cultured in RPMI 1640 medium supplemented with 10% fetal bovine serum, penicillin (100 units/mL), streptomycin (100 µg/mL), and 1.6 mg/mL NaHCO3 at 37°C in a humid atmosphere of 5% CO2/95% air. For the cell viability assay, cells were seeded at 1×10^3 cells/well in a 96-well microplate with various concentrations of the test compounds, and incubated for 48 h. MTT (3-(4,5-dimethylthiazol-2-yl)-2,5-diphenyl tetrazolium bromide) solution was added to a final concentration 0.6 mg/mL in Milli-Q purified water for 2 h, after which time the medium was discarded and the cells lysed in DMSO. A540 was then measured in a microplate reader (Model 680, Bio-Rad Laboratories, Hercules, CA, USA).

HCT116 (colon cancer) = assay: Cancer cell viability, MTT assay; type: cell-based, human; details: 48 h
Description: as §3

Rice pol λ = molecular target: T4, Rice pol λ (Oryza sativa subsp. japonica, UniProt Q67VC8); assay: DNA polymerase activity inhibition; type: biochemical, rice (Oryza sativa L. cv. Nipponbare)
T4 construct: His6 (C); made in house; host or cells: E. coli
Text: Pol α was purified from calf thymus by immunoaffinity column chromatography as described by Tamai et al.. Recombinant rat pol β was purified from Escherichia coli JMpβ5 as described by Date et al.. The human pol γ catalytic gene was cloned into pFastBac. Histidine-tagged enzyme was expressed using the BACTO-BAC HT Baculovirus Expression System according to the manufacturer's instructions (Life Technologies, Frederick, MD, USA) and purified using ProBound resin (Invitrogen Japan, Tokyo Japan). Human pols δ and ε were purified by nuclear fractionation of human peripheral blood cancer cells (Molt-4) using the second subunit of pol δ and ε-conjugated affinity column chromatography, respectively. A truncated form of human pol η (residues 1–511) tagged with His6 at its C-terminal was expressed in E. coli cells and purified as described by Kusumoto et al.. A recombinant mouse pol ι tagged with His6 at its C-terminal was expressed and purified by Ni–NTA column chromatography. […]
The chemically synthesized 5-O-acyl plumbagins (2a–j) were dissolved in distilled dimethyl sulfoxide (DMSO) to various concentrations and sonicated for 30 s. […] Activity without inhibitor was considered 100%, and the relative activity was determined for each inhibitor concentration. […]

[3] = molecular target: Mouse IMP dehydrogenase (type II) (Mus musculus, UniProt P24547); assay: Other DNA metabolic enzyme assay; type: biochemical
Mouse IMP dehydrogenase (type II), sequence (P24547 whole entry): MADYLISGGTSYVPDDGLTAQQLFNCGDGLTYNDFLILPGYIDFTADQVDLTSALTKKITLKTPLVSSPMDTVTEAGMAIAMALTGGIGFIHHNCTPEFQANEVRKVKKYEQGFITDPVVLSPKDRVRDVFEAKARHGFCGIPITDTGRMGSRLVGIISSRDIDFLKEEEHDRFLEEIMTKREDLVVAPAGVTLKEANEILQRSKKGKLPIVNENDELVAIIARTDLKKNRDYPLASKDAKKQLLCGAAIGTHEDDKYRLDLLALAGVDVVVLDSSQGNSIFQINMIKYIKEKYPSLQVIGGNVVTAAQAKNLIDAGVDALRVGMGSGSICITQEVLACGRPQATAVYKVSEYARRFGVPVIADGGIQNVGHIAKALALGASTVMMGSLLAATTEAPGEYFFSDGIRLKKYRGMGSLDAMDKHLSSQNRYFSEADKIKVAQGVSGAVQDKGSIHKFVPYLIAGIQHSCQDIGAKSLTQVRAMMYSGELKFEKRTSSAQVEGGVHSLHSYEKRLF
Description: as §2

Calf primase of pol α = Calf primase of pol α (Bos taurus, UniProt A0A3Q1MF00); assay: Other DNA metabolic enzyme assay; type: biochemical
Calf primase of pol α, sequence (A0AAA9THK8 entry or part of it): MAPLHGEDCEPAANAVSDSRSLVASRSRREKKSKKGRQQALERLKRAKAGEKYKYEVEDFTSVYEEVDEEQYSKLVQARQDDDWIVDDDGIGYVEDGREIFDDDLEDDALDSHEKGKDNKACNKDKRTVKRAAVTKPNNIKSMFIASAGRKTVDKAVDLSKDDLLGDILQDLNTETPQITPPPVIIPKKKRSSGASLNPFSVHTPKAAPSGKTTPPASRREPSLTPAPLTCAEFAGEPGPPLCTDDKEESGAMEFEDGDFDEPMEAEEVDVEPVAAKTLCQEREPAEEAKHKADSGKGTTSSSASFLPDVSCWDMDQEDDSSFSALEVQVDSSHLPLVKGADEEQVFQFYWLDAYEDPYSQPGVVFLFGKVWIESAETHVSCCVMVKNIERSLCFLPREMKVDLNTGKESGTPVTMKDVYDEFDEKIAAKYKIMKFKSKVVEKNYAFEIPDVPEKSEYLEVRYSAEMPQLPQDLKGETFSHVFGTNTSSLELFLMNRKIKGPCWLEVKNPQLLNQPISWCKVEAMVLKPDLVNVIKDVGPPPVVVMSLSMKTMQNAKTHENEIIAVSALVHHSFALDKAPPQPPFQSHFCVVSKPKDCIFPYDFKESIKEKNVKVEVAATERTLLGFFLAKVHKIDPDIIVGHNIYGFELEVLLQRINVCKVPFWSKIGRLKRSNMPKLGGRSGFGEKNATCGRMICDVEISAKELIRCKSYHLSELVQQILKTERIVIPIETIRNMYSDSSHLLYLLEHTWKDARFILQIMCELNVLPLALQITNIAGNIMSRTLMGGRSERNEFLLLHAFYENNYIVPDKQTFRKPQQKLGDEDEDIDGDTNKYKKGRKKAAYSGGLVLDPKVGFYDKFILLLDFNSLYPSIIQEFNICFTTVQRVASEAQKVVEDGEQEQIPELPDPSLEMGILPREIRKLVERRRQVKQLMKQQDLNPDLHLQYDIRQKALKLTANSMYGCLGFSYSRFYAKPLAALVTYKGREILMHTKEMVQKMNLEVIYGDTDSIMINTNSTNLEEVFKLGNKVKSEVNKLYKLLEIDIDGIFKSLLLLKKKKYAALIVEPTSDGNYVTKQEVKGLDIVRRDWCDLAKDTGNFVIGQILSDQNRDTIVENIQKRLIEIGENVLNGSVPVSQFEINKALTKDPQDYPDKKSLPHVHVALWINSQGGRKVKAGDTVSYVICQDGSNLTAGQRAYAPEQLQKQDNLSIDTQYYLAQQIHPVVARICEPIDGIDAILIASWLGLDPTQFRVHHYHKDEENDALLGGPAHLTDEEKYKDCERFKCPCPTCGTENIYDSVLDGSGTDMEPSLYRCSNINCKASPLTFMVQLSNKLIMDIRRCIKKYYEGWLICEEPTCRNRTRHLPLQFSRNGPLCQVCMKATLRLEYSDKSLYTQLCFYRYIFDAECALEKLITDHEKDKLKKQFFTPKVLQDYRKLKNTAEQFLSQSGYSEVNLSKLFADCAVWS
Calf primase of pol α, sequence (A0JNF4 entry or part of it, further chain): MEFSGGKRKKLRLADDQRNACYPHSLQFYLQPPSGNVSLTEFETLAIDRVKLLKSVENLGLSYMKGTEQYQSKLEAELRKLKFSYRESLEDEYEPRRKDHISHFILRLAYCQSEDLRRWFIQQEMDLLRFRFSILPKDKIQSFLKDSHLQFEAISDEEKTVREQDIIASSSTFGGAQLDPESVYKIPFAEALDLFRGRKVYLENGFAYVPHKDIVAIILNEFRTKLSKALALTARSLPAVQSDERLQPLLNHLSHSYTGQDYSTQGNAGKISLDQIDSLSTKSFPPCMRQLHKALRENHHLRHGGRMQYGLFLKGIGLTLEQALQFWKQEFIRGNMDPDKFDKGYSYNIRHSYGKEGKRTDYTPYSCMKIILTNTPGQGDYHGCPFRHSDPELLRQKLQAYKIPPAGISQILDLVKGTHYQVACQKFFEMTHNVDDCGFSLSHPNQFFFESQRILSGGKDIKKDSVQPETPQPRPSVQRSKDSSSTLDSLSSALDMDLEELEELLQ
Calf primase of pol α, sequence (A0A3Q1MF00 entry or part of it): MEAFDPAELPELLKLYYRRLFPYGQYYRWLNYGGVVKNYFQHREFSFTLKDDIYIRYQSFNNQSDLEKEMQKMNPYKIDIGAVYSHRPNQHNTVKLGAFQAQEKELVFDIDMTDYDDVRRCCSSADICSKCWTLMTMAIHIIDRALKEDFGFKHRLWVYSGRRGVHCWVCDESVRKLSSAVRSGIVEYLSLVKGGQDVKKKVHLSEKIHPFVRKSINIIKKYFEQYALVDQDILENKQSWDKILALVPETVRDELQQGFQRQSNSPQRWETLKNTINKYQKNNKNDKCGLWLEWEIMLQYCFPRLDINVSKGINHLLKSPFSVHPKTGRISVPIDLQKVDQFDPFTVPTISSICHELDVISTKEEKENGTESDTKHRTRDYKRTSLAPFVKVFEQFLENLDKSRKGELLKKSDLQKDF
Calf primase of pol α, sequence (Q58D13 whole entry, further chain): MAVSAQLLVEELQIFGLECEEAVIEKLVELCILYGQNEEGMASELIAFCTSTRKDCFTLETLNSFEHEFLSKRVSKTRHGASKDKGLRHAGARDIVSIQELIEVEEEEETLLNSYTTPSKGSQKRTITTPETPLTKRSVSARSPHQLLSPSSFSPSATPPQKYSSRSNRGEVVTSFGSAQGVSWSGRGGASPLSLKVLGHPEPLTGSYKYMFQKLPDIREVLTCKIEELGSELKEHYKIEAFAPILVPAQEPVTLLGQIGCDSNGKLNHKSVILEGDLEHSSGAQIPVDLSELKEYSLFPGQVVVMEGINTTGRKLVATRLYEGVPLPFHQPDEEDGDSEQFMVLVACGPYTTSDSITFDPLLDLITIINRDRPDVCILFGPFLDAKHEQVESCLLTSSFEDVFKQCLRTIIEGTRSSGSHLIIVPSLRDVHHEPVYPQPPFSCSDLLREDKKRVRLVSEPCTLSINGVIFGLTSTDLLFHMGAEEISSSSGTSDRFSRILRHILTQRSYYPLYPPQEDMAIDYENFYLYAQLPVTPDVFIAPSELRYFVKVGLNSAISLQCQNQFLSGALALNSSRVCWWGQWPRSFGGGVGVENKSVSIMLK
Description: as §2

[4] = test system: nine human cancer cell lines; assay: Cancer cell viability, MTT assay, summary over the panel; type: cell-based; details: range over nine cell lines, 48 h
Description: as §3

Q: What does the source list for `CCCCCCCC/C=C\CCCCCCCC(=O)Oc1cccc2c1C(=O)C=C(C)C2=O` [2f, 5-O-oleoyl-2-methyl-1,4-naphthoquinone]?
A: effect on enzyme activity (in words) (T7 RNA polymerase): did not inhibit; IC50 (T7 RNA polymerase; 0.05 units enzyme): > 100 µM; effect on enzyme activity (in words) [1]: did not inhibit; IC50 ([1]; 0.05 units enzyme): > 100 µM; effect on enzyme activity (in words) (T4 polynucleotide kinase): did not inhibit; IC50 (T4 polynucleotide kinase; 0.05 units enzyme): > 100 µM; LD50 values [2]: 7.4 ± 0.8 µM; cell proliferation rate (HCT116 (colon cancer); 10 µM, MTT, control = 100%): less than 40%; cell proliferation inhibitory effect compared among the compounds (in words) (HCT116 (colon cancer); 10 and 100 µM, MTT, Fig. 5): strongest effects on cancer cell proliferation suppression; LD50 values (HCT116 (colon cancer); MTT assay, mean ± SD (n = 5)): 6.5 µM and 6.5 ± 0.6 µM; effect on enzyme activity (in words) (Rice pol λ): had no effect; IC50 (Rice pol λ; 0.05 units enzyme): > 100 µM; effect on enzyme activity (in words) [3]: did not inhibit; IC50 ([3]; 0.05 units enzyme): > 100 µM; effect on enzyme activity (in words) (Calf primase of pol α): did not inhibit; IC50 (Calf primase of pol α; 0.05 units enzyme): > 100 µM; LD50 values [4]: 2.9 to 21.0 µM
